In patent EP0980241B1 (Pfizer Products Inc., priority 1997, dated 1999):
≈ marks a conversion by molar mass, not a printed value. Structures can show the parent of a compound that is named as a salt.

Experiments:
[1] = Precipitation studies: sertraline base solution in vehicle added to 0.1 N HCl or phosphate buffered saline pH 5.8; type: physicochemical
[2] = Dilution of PEG-400 or polysorbate-80 solution of sertraline base into 0.9% NaCl (precipitation test); type: physicochemical; details: for Observed Concentration after Dilution in Saline, after 15 min / Observed Concentration after Dilution in Saline, after 2 hr: 1 ml into 15 ml 0.9% NaCl pH 4.2
Procedure: One ml of this test solution was added to 15 ml normal saline (0.9% NaCl, pH 4.2), and was stirred vigorously. […]

[3] = not given; remark: listed apart in the source
[4] = known oral immediate-release dosage forms; cited from earlier work
[5] = in vivo
[6] = Chloride-induced gelling of saturated aqueous sertraline salt solutions; type: physicochemical
[7] = PEG-400, 50 mgA/ml in vehicle, expected 3.1
[8] = PEG-400, 100 mgA/ml in vehicle, expected 6.25
[9] = Polysorbate-80, 50 mgA/ml in vehicle, expected 3.1
[10] = Polysorbate-80, 100 mgA/ml in vehicle, expected 6.25

Compound: CN[C@H]1CC[C@@H](c2ccc(Cl)c(Cl)c2)c2ccccc21 [Free base, sertraline free base]
- solubility (physchem; polysorbate-80, organic solvent or mixture): ~102 mg/mL (≈ 333 mM)
- Equilibrium solubility in Capmul-®MCM (capmul-mcm): >50 mgA/ml
- Equilibrium solubility in Captex® 200 (captex 200): >50 mgA/ml
- Equilibrium solubility in Migloyol® 810 (miglyol 810): >50 mgA/ml
- Equilibrium solubility in Oleic acid (oleic acid): >50 mgA/ml
- Equilibrium solubility in Olive oil: >50 mgA/ml
- Equilibrium solubility in Safflower oil: >50 mgA/ml
- Concentration of sertraline in non-aqueous layer ([1]; Capmul MCM 50 mgA/mL, 1 mL into 10 mL 0.1 N HCl, 15 minutes): 44 mgA/ mL
- Concentration of sertraline in aqueous layer ([1]; Capmul MCM 50 mgA/mL, 1 mL into 10 mL 0.1 N HCl, 15 minutes, expected 5.00): 0.38 mgA/ mL
- Concentration of sertraline in non-aqueous layer ([1]; Capmul MCM 50 mgA/mL, 1 mL into 10 mL 0.1 N HCl, 120 minutes): 44.2 mgA/ mL
- Concentration of sertraline in aqueous layer ([1]; Capmul MCM 50 mgA/mL, 1 mL into 10 mL 0.1 N HCl, 120 minutes, expected 5.00): 0.31 mgA/ mL
- Concentration of sertraline in non-aqueous layer ([1]; Capmul MCM 50 mgA/mL, 1 mL into 10 mL Phosphate buffered saline pH 5.8, 15 minutes): 48 mgA/ mL
- Concentration of sertraline in aqueous layer ([1]; Capmul MCM 50 mgA/mL, 1 mL into 10 mL Phosphate buffered saline pH 5.8, 15 minutes, expected 5.00): 0.18 mgA/ mL
- Concentration of sertraline in non-aqueous layer ([1]; Capmul MCM 50 mgA/mL, 1 mL into 10 mL Phosphate buffered saline pH 5.8, 120 minutes): 48.6 mgA/ mL
- Concentration of sertraline in aqueous layer ([1]; Capmul MCM 50 mgA/mL, 1 mL into 10 mL Phosphate buffered saline pH 5.8, 120 minutes, expected 5.00): 0.16 mgA/ mL
- precipitation of sertraline ([1]; Capmul-MCM vehicle): essentially no precipitation
- portion of sertraline that remains in solution ([1]; Capmul-MCM vehicle, 0.1 N HCl or phosphate buffered saline): > 95 % of added amount
- Concentration of sertraline in aqueous layer ([1]; PEG 400 50 mgA/mL, 1 mL into 10 mL 0.1 N HCl, 15 minutes, expected 4.55): 0.6 mgA/ mL
- Concentration of sertraline in aqueous layer ([1]; PEG 400 50 mgA/mL, 1 mL into 10 mL 0.1 N HCl, 120 minutes, expected 4.55): 0.35 mgA/ mL
- Concentration of sertraline in aqueous layer ([1]; PEG 400 50 mgA/mL, 1 mL into 10 mL Phosphate buffered saline pH 5.8, 15 minutes, expected 4.55): 0.16 mgA/ mL
- Concentration of sertraline in aqueous layer ([1]; PEG 400 50 mgA/mL, 1 mL into 10 mL Phosphate buffered saline pH 5.8, 120 minutes, expected 4.55): 0.12 mgA/ mL
- precipitation of sertraline ([1]; PEG 400 solution into either 0.1 N HCl or phosphate buffered saline): precipitation of a large proportion of sertraline
- Concentration of sertraline in non-aqueous layer ([1]; Safflower oil 50 mgA/mL, 1 mL into 10 mL 0.1 N HCl, 15 minutes): 4.8 mgA/ mL
- Concentration of sertraline in aqueous layer ([1]; Safflower oil 50 mgA/mL, 1 mL into 10 mL 0.1 N HCl, 15 minutes, expected 5.00): 0.48 mgA/ mL
- Concentration of sertraline in non-aqueous layer ([1]; Safflower oil 50 mgA/mL, 1 mL into 10 mL 0.1 N HCl, 120 minutes): 3.2 mgA/ mL
- Concentration of sertraline in aqueous layer ([1]; Safflower oil 50 mgA/mL, 1 mL into 10 mL 0.1 N HCl, 120 minutes, expected 5.00): 0.48 mgA/ mL
- Concentration of sertraline in non-aqueous layer ([1]; Safflower oil 50 mgA/mL, 1 mL into 10 mL Phosphate buffered saline pH 5.8, 15 minutes): 45 mgA/ mL
- Concentration of sertraline in aqueous layer ([1]; Safflower oil 50 mgA/mL, 1 mL into 10 mL Phosphate buffered saline pH 5.8, 15 minutes, expected 5.00): 0.19 mgA/ mL
- Concentration of sertraline in non-aqueous layer ([1]; Safflower oil 50 mgA/mL, 1 mL into 10 mL Phosphate buffered saline pH 5.8, 120 minutes): 44.6 mgA/ mL
- Concentration of sertraline in aqueous layer ([1]; Safflower oil 50 mgA/mL, 1 mL into 10 mL Phosphate buffered saline pH 5.8, 120 minutes, expected 5.00): 0.19 mgA/ mL
- precipitation of sertraline ([1]; safflower oil solution added to phosphate buffered saline): little or no precipitation
- precipitation of sertraline ([1]; safflower oil vehicle, in the presence of 0.1N HCl): 81%
- Observed Concentration after Dilution in Saline, after 15 min [2, 7]: 0.9 mgA/ml
- Observed Concentration after Dilution in Saline, after 2 hr [2, 7]: 2.1 mgA/ml
- Observed Concentration after Dilution in Saline, after 15 min [2, 8]: 0.7 mgA/ml
- Observed Concentration after Dilution in Saline, after 2 hr [2, 8]: 1.8 mgA/ml
- Precipitation upon addition to a NaCl solution ([2]; PEG-400 solution): a portion of the sertraline precipitates
- Observed Concentration after Dilution in Saline, after 15 min [2, 9]: 3.1 mgA/ml
- Observed Concentration after Dilution in Saline, after 2 hr [2, 9]: 3.1 mgA/ml
- Observed Concentration after Dilution in Saline, after 15 min [2, 10]: 6.25 mgA/ml
- Observed Concentration after Dilution in Saline, after 2 hr [2, 10]: 6.25 mgA/ml
- Precipitation upon addition to a NaCl solution ([2]; Polysorbate-80 solution): no precipitation occurs

Compound: CN[C@H]1CC[C@@H](c2ccc(Cl)c(Cl)c2)c2ccccc21 [Hydrochloride, sertraline hydrochloride]
- solubility (physchem; capmul-mcm, organic solvent or mixture, Solubility in Capmul-MCM): ~45 mg/mL
- solubility (physchem; safflower oil, organic solvent or mixture, Solubility in Safflower Oil): < 9 mg/mL
- Equilibrium solubility in Olive oil: <0.01 (below detection limit) mgA/ml
- Equilibrium solubility in Safflower oil: <0.01 (below detection limit) mgA/ml
- Solubility in Polysorbate-80 [3]: <14 mgA/ml

Compound: CN[C@H]1CC[C@@H](c2ccc(Cl)c(Cl)c2)c2ccccc21 [sertraline]
- Tmax [4]: 6 to 7 h
- half-time for absorption [5]: less than 27.7 minutes

Compound: sertraline lactate
- appearance of saturated solution at physiological chloride concentrations [6]: thick pasty solid which does not flow

Compound: sertraline acetate
- appearance of saturated solution at physiological chloride concentrations [6]: thick pasty solid which does not flow
